Measured values published in paper PMC11528320, “S-MGBs bearing amidine tail groups are potent, selective antiplasmodial agents” (RSC Medicinal Chemistry, 2024).
Like-named read-outs stand apart in the source and are kept apart here.

Columns and labels:
[1] = tested on: P. falciparum 3D7; assay: in vitro asexual P. falciparum imaging assay, 3D7 strain; format: cell-based
Description: (§1) The antiplasmodial in vitro assay was performed as previously described.[13] In brief, P. falciparum parasites (3D7 and Dd2 strains) were grown in RPMI-1640 medium supplemented with 25 mM HEPES, 5% AB human male serum, 2.5 mg mL^−1 Albumax II, and 0.37 mM hypoxanthine. Parasites were subjected to two rounds of sorbitol synchronization prior to compound addition. Ring stage parasites were incubated with compounds in 384-well imaging CellCarrier microplates, for 72 h at 37 °C, 90% N2, 5% CO2, 5% O2, parasites stained with 4′,6-diamidino-2-phenylindole (DAPI) and imaged using an Opera QEHS microplate confocal imaging system (PerkinElmer). Images were analysed as previously described,[13] and raw data normalized using the in-plate positive and negative controls to obtain percent inhibition, used to calculate IC50 values, through a four-parameter logistic curve fitting in Prism (GraphPad).

[2] = tested on: P. falciparum Dd2; assay: in vitro asexual P. falciparum imaging assay, Dd2 strain; format: cell-based
Description: as §1

[3] = tested on: HEK293 cells; assay: HEK293 cell viability (resazurin) assay; format: cell-based, Human; conditions: for IC50 / inhibition at 80 µM: Homo sapiens; for IC50: HEK293, 72 h; for SI, HEK293/3D7: ratio of HEK293 IC50 (or relative IC50) to P. falciparum 3D7 IC50; for inhibition at 80 µM: HEK293, 72 h
Description: Cell viability was assessed using a minor modification of the protocol previously described.[14] Human embryonic kidney cells (HEK293) were maintained in Dulbecco's modified Eagle's medium supplemented with 10% foetal bovine serum.

[4] = ratio of Dd2 IC50 to 3D7 IC50 (cross-resistance)
[5] = Plasmodium falciparum, 3D7, 72 h; read-out: 3D7 IC50
[6] = Plasmodium falciparum, DD2, 72 h; read-out: Dd2 IC50

| Compound | IC50 ([1]; Plasmodium falciparum, 3D7, 72 h, read-out: 3D7 IC50) [nM] | IC50 ([2]; Plasmodium falciparum, DD2, 72 h, read-out: Dd2 IC50) [nM] | Dd2/3D7 [2, 4] | IC50 [1, 5] [nM] | IC50 [2, 6] [nM] | IC50 [3] [nM] | SI, HEK293/3D7 [3] | inhibition at 80 µM [3] [%] |
| --- | --- | --- | --- | --- | --- | --- | --- | --- |
| CCN(CC)CCCC(C)Nc1ccnc2cc(Cl)ccc12 (centres unmarked) [Chloroquine, chloroquine, reference compound] | 31.3 ± 9.7 | 225 ± 84.4 | 7.2 | – | – | – | – | – |
| COc1ccc(C[C@H](N)C(=O)N[C@H]2[C@@H](O)[C@H](n3cnc4c(N(C)C)ncnc43)O[C@@H]2CO)cc1 [Puromycin, puromycin, reference compound] | – | – | 1.2 | 41.9 ± 7.2 | 49.3 ± 3.5 | 378 | 9 | – |
| CCc1nc(N)nc(N)c1-c1ccc(Cl)cc1 [Pyrimeth-amine, pyrimethamine, reference compound] | – | – | – | 2.69 ± 0.26 | > 80000 | 3980 | 1478 | – |
| COc1ccc2nc3cc(Cl)ccc3c(Nc3cc(CN4CCCC4)c(O)c(CN4CCCC4)c3)c2n1 [Pyronaridine, pyronaridine, reference compound] | – | – | 1.3 | 26.7 ± 3.8 | 33.3 ± 6.1 | 3050 | 114 | – |
| COc1cccc(/C=C/c2ccc(C(=O)Nc3cc(C(=O)Nc4cc(C(=O)NCCCN(C)C)n(C)c4)n(C)c3)cc2)c1.O=C(O)C(F)(F)F [S-MGB-131] | – | – | 1.3 | 200 | 254.4 ± 0.2 | – | – | 101 |
| Cn1cc(NC(=O)c2cc(NC(=O)c3ccc(/C=C/c4ccc(C(F)(F)F)cc4)cc3)cn2C)cc1C(=O)NCCN1CCOCC1.O=C(O)C(F)(F)F [S-MGB-176] | – | – | 1.6 | 756 ± 0.8 | 1236 ± 3 | – | >53 | 80 |
| Cn1cc(NC(=O)c2cc(NC(=O)c3ccc(/C=C/c4ccc5nsnc5c4)cc3)cn2C)cc1C(=O)NCCN1CCOCC1.O=C(O)C(F)(F)F [S-MGB-188] | – | – | 1.1 | 57 ± 0.1 | 61.9 ± 0.3 | – | >193 | 86 |
| CC(C)n1cc(NC(=O)c2cc(NC(=O)c3ccc(/C=C/c4cnc5ccccc5c4)cc3)cn2C)cc1C(=O)NCCN1CCOCC1.O=C(O)C(F)(F)F [S-MGB-192] | – | – | 1.1 | 96.3 ± 12.8 | 108 ± 20.6 | 3190 | 33 | – |
| CN(C)c1ccc(/C=C/c2ccc(C(=O)Nc3cc(C(=O)Nc4cc(C(=O)NCCN5CCOCC5)n(C)c4)n(C)c3)cn2)cc1.O=C(O)C(F)(F)F [S-MGB-245] | – | – | 1.1 | 161 ± 0.5 | 169.1 ± 0.5 | 2750 | 17 | – |
| CN(C)CCNC(=O)c1cc(NC(=O)c2cc(NC(=O)c3ccc(/C=C/c4ccc(N(C)C)cc4)nc3)cn2C)cn1C.O=C(O)C(F)(F)F [S-MGB-246] | – | – | 1.2 | 43 ± 0.6 | 53 ± 0.4 | 3860 | 90 | – |
| COc1cccc(/C=C/c2ccc(C(=O)Nc3cc(C(=O)Nc4cc(C(=O)NCCN(C)C)n(C)c4)n(C)c3)cc2)c1.O=C(O)C(F)(F)F [S-MGB-247] | – | – | 1.3 | 108.9 ± 0.2 | 138.6 ± 0.2 | – | >183.7 | 100 |
| CN(C)CCNC(=O)c1cc(NC(=O)c2cc(NC(=O)c3ccc(/C=C/c4cnc5ccccc5c4)cc3)cn2C)cn1C.O=C(O)C(F)(F)F [S-MGB-248] | – | – | 1.7 | 33.4 ± 0.7 | 57 ± 0.6 | 3130 | 94 | – |
| CC(C)CCn1cc(NC(=O)c2cc(NC(=O)c3cc(NC(=N)c4cc5ccccc5cn4)cn3C)cn2C)cc1C(=O)NCCCN(C)C.O=C(O)C(F)(F)F [S-MGB-330] | – | – | 1.6 | 407.7 ± 0.1 | 636.1 ± 0.4 | – | >98.1 | 100 |
| CN(C)CCCNC(=O)c1cc(NC(=O)c2cc(NC(=O)c3cc(NC(=N)c4cc5ccccc5cn4)cn3C)cn2C)cn1C.O=C(O)C(F)(F)F [S-MGB-337] | – | – | 1.1 | 95.6 | 101.8 ± 0.2 | – | >219.7 | 101 |
| Cn1cc(NC(=O)c2cc(NC(=O)c3ccc(/C=C/C(=O)Nc4ccccc4O)cc3)cn2C)cc1C(=O)NCCC(=N)N.O=C(O)C(F)(F)F [S-MGB-361] | – | – | 0.9 | 633.9 ± 0.2 | 558.5 ± 0.4 | – | >63.1 | 90 |
| COc1ccc(/C=C/c2ccc(C(=O)Nc3cc(C(=O)Nc4cc(C(=O)NCCC(=N)N)n(C)c4)n(C)c3)cc2)cc1.O=C(O)C(F)(F)F [S-MGB-367] | – | – | – | 367.3 ± 0.9 | 620.3 ± 0.3 | – | >108.9 | 81 |
| CC(C)CCc1sc(NC(=O)c2cc(NC(=O)c3ccc(/C=C/c4ccc(F)cc4)nc3)cn2C)nc1C(=O)NCCCN(C)C.O=C(O)C(F)(F)F [S-MGB-376] | – | – | 0.9 | 147.2 ± 1.4 | 135 ± 1.6 | 9100 | 62 | – |
| CC(C)CCc1sc(NC(=O)c2cc(NC(=O)c3ccc(/C=C/c4ccc(C(F)(F)F)cc4)cc3)cn2C)nc1C(=O)NCCCN(C)C.O=C(O)C(F)(F)F [S-MGB-377] | – | – | 1.4 | 73.1 ± 4.7 | 105 ± 6.3 | 4300 | 59 | – |
| CC(C)CCc1sc(NC(=O)c2cc(NC(=O)c3ccc(/C=C/c4cccc(F)c4)cc3)cn2C)nc1C(=O)NCCCN(C)C.O=C(O)C(F)(F)F [S-MGB-378] | – | – | 1.1 | 150 ± 4 | 171 ± 2.9 | 10500 | 70 | – |
| CC(C)CCc1sc(NC(=O)c2cc(NC(=O)c3ccc(/C=C/c4ccc(F)cc4)cc3)cn2C)nc1C(=O)NCCCN(C)C.O=C(O)C(F)(F)F [S-MGB-379] | – | – | 1.0 | 150 ± 2.7 | 148 ± 5.4 | 8340 | 56 | – |
| CC(C)CCc1sc(NC(=O)c2cc(NC(=O)c3ccc(/C=C/c4cccc(C(F)(F)F)c4)nc3)cn2C)nc1C(=O)NCCCN(C)C.O=C(O)C(F)(F)F [S-MGB-380] | – | – | 1.1 | 74.7 ± 2.8 | 83.9 ± 3.6 | 8200 | 110 | – |
| CC(C)CCc1sc(NC(=O)c2cc(NC(=O)c3cc(NC(=O)c4cccc(F)c4)cn3C)cn2C)nc1C(=O)NCCCN(C)C.O=C(O)C(F)(F)F [S-MGB-386] | – | – | 0.8 | 254.9 ± 1.2 | 207.1 ± 1.3 | – | >157 | 101 |
| Cn1cc(NC(=O)c2cc(NC(=O)c3ccc(NC(=O)c4ccc(F)cc4)cc3)cn2C)cc1C(=O)NCCC(=N)N.O=C(O)C(F)(F)F [S-MGB-388] | – | – | 1.3 | 181 ± 2.2 | 228.6 ± 2 | – | >192.9 | 93 |
| Cn1cc(NC(=O)c2cc(NC(=O)c3ccc(NC(=O)c4cccc(F)c4)cc3)cn2C)cc1C(=O)NCCC(=N)N.O=C(O)C(F)(F)F [S-MGB-389] | – | – | 0.6 | 857.5 ± 1.3 | 488 ± 1.8 | – | >46.6 | 92 |
| Cn1cc(NC(=O)c2cc(NC(=O)c3ccc(/C=C/c4ccc(F)cc4)cc3)cn2C)cc1C(=O)NCCC(=N)N.O=C(O)C(F)(F)F [S-MGB-390] | – | – | 1.2 | 532.6 ± 0.9 | 640.2 ± 0.6 | – | >75.1 | 78 |
| Cn1cc(NC(=O)c2cc(NC(=O)c3ccc(/C=C/c4cccc(F)c4)cc3)cn2C)cc1C(=O)NCCC(=N)N.O=C(O)C(F)(F)F [S-MGB-391] | – | – | 1.9 | 671.3 ± 1.4 | 1295.5 ± 0.7 | – | >59.6 | 100 |
